# Assay results: PubChem BioAssay AID2060501 (Molecular Pharmacology Branch, DTP, NCI, 2025)
# Test system: 282377-053-R-J1-PDC complex spheroids, viability
# Assay: Anticancer human tumor 282377-053-R-J1-PDC patient-derived colon adenocarcinoma cell line growth inhibition [GQUAD]
# Conditions: for IC50: curve of first compound; for viability, T/C: stronger effect = lower value
# Procedure, shortened: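 Multi-cell-type spheroids of tumor cells with HUVEC and mesenchymal stem cells, treated with drug combinations. Concentrations descend in half-log steps from near clinical Cmax, or from 10 microM where Cmax is unknown; viability read-out.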
# [1] = second compound 0.0316 µM, first compound 0.0316 µM
# [2] = second compound 0.0316 µM, first compound 0.1 µM
# [3] = second compound 0.0316 µM, first compound 0.316 µM
# [4] = second compound 0.0316 µM, first compound 1 µM
# [5] = second compound 0.0316 µM, first compound 3.16 µM
# [6] = second compound 0.0316 µM, first compound 10 µM
# [7] = second compound 0.1 µM, first compound 0.0316 µM
# [8] = second compound 0.1 µM, first compound 0.1 µM
# [9] = second compound 0.1 µM, first compound 0.316 µM
# [10] = second compound 0.1 µM, first compound 1 µM
# [11] = second compound 0.1 µM, first compound 3.16 µM
# [12] = second compound 0.1 µM, first compound 10 µM
# [13] = second compound 0.316 µM, first compound 0.0316 µM
# [14] = second compound 0.316 µM, first compound 0.1 µM
# [15] = second compound 0.316 µM, first compound 0.316 µM
# [16] = second compound 0.316 µM, first compound 1 µM
# [17] = second compound 0.316 µM, first compound 3.16 µM
# [18] = second compound 0.316 µM, first compound 10 µM
# [19] = second compound 1 µM, first compound 0.0316 µM
# [20] = second compound 1 µM, first compound 0.1 µM
# [21] = second compound 1 µM, first compound 0.316 µM
# [22] = second compound 1 µM, first compound 1 µM
# [23] = second compound 1 µM, first compound 3.16 µM
# [24] = second compound 1 µM, first compound 10 µM
# [25] = second compound 3.16 µM, first compound 0.0316 µM
# [26] = second compound 3.16 µM, first compound 0.1 µM
# [27] = second compound 3.16 µM, first compound 0.316 µM
# [28] = second compound 3.16 µM, first compound 1 µM
# [29] = second compound 3.16 µM, first compound 3.16 µM
# [30] = second compound 3.16 µM, first compound 10 µM
# [31] = second compound 10 µM, first compound 0.0316 µM
# [32] = second compound 10 µM, first compound 0.1 µM
# [33] = second compound 10 µM, first compound 0.316 µM
# [34] = second compound 10 µM, first compound 1 µM
# [35] = second compound 10 µM, first compound 3.16 µM
# [36] = second compound 10 µM, first compound 10 µM
# 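Note: spheroids exposed to compounds for 7 days before readout.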
# 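Throughout, for viability, T/C: percent of vehicle DMSO control viability with 100% = untreated-like growth.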
smiles,measurement,setting,value
CC(=O)O[C@H]1C(=O)[C@@]2(C)[C@H]([C@H](OC(=O)c3ccccc3)[C@]3(O)C[C@H](OC(=O)[C@H](O)[C@@H](NC(=O)c4ccccc4)c4ccccc4)C(C)=C1C3(C)C)[C@]1(OC(C)=O)CO[C@@H]1C[C@@H]2O + CN(C)c1ccc(Nc2c3ccc(NC(=O)CCN4CCCC4)cc3nc3cc(NC(=O)CCN4CCCC4)ccc23)cc1,IC50,second compound 0.0316 µM,42 nM
same,IC50,second compound 0.1 µM,44.7 nM
same,IC50,second compound 0.316 µM,48.8 nM
same,IC50,second compound 1 µM,34.7 nM
same,IC50,second compound 3.16 µM,39.1 nM
same,IC50,second compound 10 µM,< 31.6 nM
same,"viability, T/C",[1],59.7%
same,"viability, T/C",[2],14.9%
same,"viability, T/C",[3],18.9%
same,"viability, T/C",[4],18.1%
same,"viability, T/C",[5],22%
same,"viability, T/C",[6],25.2%
same,"viability, T/C",[7],63.1%
same,"viability, T/C",[8],15.6%
same,"viability, T/C",[9],17.4%
same,"viability, T/C",[10],17.6%
same,"viability, T/C",[11],21.3%
same,"viability, T/C",[12],25.8%
same,"viability, T/C",[13],68%
same,"viability, T/C",[14],17.1%
same,"viability, T/C",[15],18.5%
same,"viability, T/C",[16],18.1%
same,"viability, T/C",[17],19.1%
same,"viability, T/C",[18],28.9%
same,"viability, T/C",[19],52.5%
same,"viability, T/C",[20],15.7%
same,"viability, T/C",[21],18.1%
same,"viability, T/C",[22],17.4%
same,"viability, T/C",[23],26.8%
same,"viability, T/C",[24],25%
same,"viability, T/C",[25],56.7%
same,"viability, T/C",[26],18.4%
same,"viability, T/C",[27],16.8%
same,"viability, T/C",[28],17.2%
same,"viability, T/C",[29],19.2%
same,"viability, T/C",[30],24.7%
same,"viability, T/C",[31],47.2%
same,"viability, T/C",[32],14.8%
same,"viability, T/C",[33],14.5%
same,"viability, T/C",[34],18.8%
same,"viability, T/C",[35],22.8%
same,"viability, T/C",[36],28.4%
Cc1[nH]c2ccccc2c1CCNCc1ccc(/C=C/C(=O)NO)cc1 + CN(C)c1ccc(Nc2c3ccc(NC(=O)CCN4CCCC4)cc3nc3cc(NC(=O)CCN4CCCC4)ccc23)cc1,IC50,second compound 0.0316 µM,189 nM
same,IC50,second compound 0.1 µM,189 nM
same,IC50,second compound 0.316 µM,179 nM
same,IC50,second compound 1 µM,189 nM
same,IC50,second compound 3.16 µM,173 nM
same,IC50,second compound 10 µM,147 nM
same,"viability, T/C","second compound 0.0316 µM, first compound 0.000999 µM",106%
same,"viability, T/C","second compound 0.0316 µM, first compound 0.00316 µM",91.1%
same,"viability, T/C","second compound 0.0316 µM, first compound 0.00999 µM",109%
same,"viability, T/C",[1],110%
same,"viability, T/C","second compound 0.0316 µM, first compound 0.0999 µM",106%
same,"viability, T/C",[3],6.18%
same,"viability, T/C","second compound 0.1 µM, first compound 0.000999 µM",97.3%
same,"viability, T/C","second compound 0.1 µM, first compound 0.00316 µM",108%
same,"viability, T/C","second compound 0.1 µM, first compound 0.00999 µM",114%
same,"viability, T/C",[7],89.3%
same,"viability, T/C","second compound 0.1 µM, first compound 0.0999 µM",105%
same,"viability, T/C",[9],7.41%
same,"viability, T/C","second compound 0.316 µM, first compound 0.000999 µM",91.8%
same,"viability, T/C","second compound 0.316 µM, first compound 0.00316 µM",86.4%
same,"viability, T/C","second compound 0.316 µM, first compound 0.00999 µM",91.4%
same,"viability, T/C",[13],116%
same,"viability, T/C","second compound 0.316 µM, first compound 0.0999 µM",99.6%
same,"viability, T/C",[15],3.85%
same,"viability, T/C","second compound 1 µM, first compound 0.000999 µM",90.2%
same,"viability, T/C","second compound 1 µM, first compound 0.00316 µM",98.5%
same,"viability, T/C","second compound 1 µM, first compound 0.00999 µM",108%
same,"viability, T/C",[19],121%
same,"viability, T/C","second compound 1 µM, first compound 0.0999 µM",103%
same,"viability, T/C",[21],7.41%
same,"viability, T/C","second compound 3.16 µM, first compound 0.000999 µM",92.9%
same,"viability, T/C","second compound 3.16 µM, first compound 0.00316 µM",95.1%
same,"viability, T/C","second compound 3.16 µM, first compound 0.00999 µM",101%
same,"viability, T/C",[25],123%
same,"viability, T/C","second compound 3.16 µM, first compound 0.0999 µM",89.8%
same,"viability, T/C",[27],6.57%
same,"viability, T/C","second compound 10 µM, first compound 0.000999 µM",78.5%
same,"viability, T/C","second compound 10 µM, first compound 0.00316 µM",103%
same,"viability, T/C","second compound 10 µM, first compound 0.00999 µM",94.6%
same,"viability, T/C",[31],92.8%
same,"viability, T/C","second compound 10 µM, first compound 0.0999 µM",73.6%
same,"viability, T/C",[33],3.92%
O=C(NO)c1cnc(N2CCN(S(=O)(=O)c3ccc4ccccc4c3)CC2)nc1 + CN(C)c1ccc(Nc2c3ccc(NC(=O)CCN4CCCC4)cc3nc3cc(NC(=O)CCN4CCCC4)ccc23)cc1,IC50,second compound 0.0316 µM,518 nM
same,IC50,second compound 0.1 µM,512 nM
same,IC50,second compound 0.316 µM,536 nM
same,IC50,second compound 1 µM,508 nM
same,IC50,second compound 3.16 µM,578 nM
same,IC50,second compound 10 µM,464 nM
same,"viability, T/C",[1],107%
same,"viability, T/C",[2],128%
same,"viability, T/C",[3],86.8%
same,"viability, T/C",[4],2.18%
same,"viability, T/C",[5],0.16%
same,"viability, T/C",[6],0.17%
same,"viability, T/C",[7],110%
same,"viability, T/C",[8],93.4%
same,"viability, T/C",[9],83.6%
same,"viability, T/C",[10],3.12%
same,"viability, T/C",[11],0.11%
same,"viability, T/C",[12],0.12%
same,"viability, T/C",[13],111%
same,"viability, T/C",[14],101%
same,"viability, T/C",[15],90.6%
same,"viability, T/C",[16],2.03%
same,"viability, T/C",[17],0.1%
same,"viability, T/C",[18],0.11%
same,"viability, T/C",[19],103%
same,"viability, T/C",[20],120%
same,"viability, T/C",[21],84%
same,"viability, T/C",[22],2.22%
same,"viability, T/C",[23],0.08%
same,"viability, T/C",[24],0.11%
same,"viability, T/C",[25],113%
same,"viability, T/C",[26],92.1%
same,"viability, T/C",[27],106%
same,"viability, T/C",[28],1.28%
same,"viability, T/C",[29],0.14%
same,"viability, T/C",[30],0.13%
same,"viability, T/C",[31],93%
same,"viability, T/C",[32],87.8%
same,"viability, T/C",[33],73.1%
same,"viability, T/C",[34],3.72%
same,"viability, T/C",[35],0.18%
same,"viability, T/C",[36],0.17%
O=c1[nH]cc(F)c(=O)[nH]1 + CN(C)c1ccc(Nc2c3ccc(NC(=O)CCN4CCCC4)cc3nc3cc(NC(=O)CCN4CCCC4)ccc23)cc1,IC50,second compound 0.0316 µM,> 10000 nM
same,IC50,second compound 0.1 µM,> 10000 nM
same,IC50,second compound 0.316 µM,> 10000 nM
same,IC50,second compound 1 µM,> 10000 nM
same,IC50,second compound 3.16 µM,> 10000 nM
same,IC50,second compound 10 µM,> 10000 nM
same,"viability, T/C",[1],95.5%
same,"viability, T/C",[2],87.1%
same,"viability, T/C",[3],110%
same,"viability, T/C",[4],81%
same,"viability, T/C",[5],73.4%
same,"viability, T/C",[6],74.1%
same,"viability, T/C",[7],101%
same,"viability, T/C",[8],93.1%
same,"viability, T/C",[9],104%
same,"viability, T/C",[10],88.8%
same,"viability, T/C",[11],74.5%
same,"viability, T/C",[12],73.2%
same,"viability, T/C",[13],106%
same,"viability, T/C",[14],94.3%
same,"viability, T/C",[15],106%
same,"viability, T/C",[16],96%
same,"viability, T/C",[17],67.8%
same,"viability, T/C",[18],73.8%
same,"viability, T/C",[19],108%
same,"viability, T/C",[20],94.4%
same,"viability, T/C",[21],106%
same,"viability, T/C",[22],89.9%
same,"viability, T/C",[23],77.8%
same,"viability, T/C",[24],69%
same,"viability, T/C",[25],83.1%
same,"viability, T/C",[26],75.7%
same,"viability, T/C",[27],89.2%
same,"viability, T/C",[28],79.1%
same,"viability, T/C",[29],68.2%
same,"viability, T/C",[30],64.5%
same,"viability, T/C",[31],92.8%
same,"viability, T/C",[32],81.3%
same,"viability, T/C",[33],88.5%
same,"viability, T/C",[34],81.7%
same,"viability, T/C",[35],70.1%
same,"viability, T/C",[36],57.9%
